{
  "source": "patent US20020183384A1",
  "about": "“Methods of treating nuclear factor-kappa B mediated diseases and disorders” (priority 2001, published 2002)",
  "data": [
    {"test_system": "NF-κB mediated transcription", "assay": "NF-κB driven β-lactamase reporter assay in ECV-304 NF-κB.βlaZ cells (AURORA CCF2 fluorescence)", "assay_type": "cell-based, human", "settings": "10 μM compound; ECV-304 NF-κB.βlaZ cells stimulated with 10 ng/mL TNF-α or 100 pg/mL IL-1β, 6 hours at 37° C.; inhibition of maximum blue/green ratio", "outline": "(§1)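 Blue/green (460/530 nm, excitation 395 nm) CCF2 emission ratio quantified NF-κB-driven β-lactamase expression in the stably transfected endothelial-like ECV-304 clone 1E8.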", "units": {"Percent Inhibition at 10 μM": "%"}, "values": [
      {"smiles": "CC(C)c1cccc(C(C)C)c1NC(=O)NS(=O)(=O)Nc1c(C(C)C)cccc1C(C)C", "note": "[Example 7, Urea, N-[2 ,6-bis(1-methylethyl)phenyl]-N′-[[[2,6-bis(1-methylethyl)phenyl]-amino]sulfonyl]-]", "Percent Inhibition at 10 μM": 37.04},
      {"smiles": "CC(C)c1cccc(C(C)C)c1NC(=O)NS(=O)(=O)N(CC1CCCO1)CC1CCCO1", "note": "(stereo not shown) [Example 41, N-[2,6-bis(1-methylethyl)phenyl]-N′-[[bis[(tetrahydro-2-furanyl)methyl]amino]sulfonyl]-urea,]", "Percent Inhibition at 10 μM": "<10"},
      {"smiles": "CC(C)c1cc(-c2cc(C(C)C)c(OC(=O)NS(=O)(=O)Oc3c(C(C)C)cccc3C(C)C)c(C(C)C)c2)cc(C(C)C)c1OC(=O)NS(=O)(=O)Oc1c(C(C)C)cccc1C(C)C", "note": "[Example 134, Carbamic acid, [[2,6-bis(1-methylethyl)phenoxy]sulfonyl]-, 3,3′,5,5′-tetrakis(1-methylethyl) [1,1′-biphenyl]-4,4′-diyl ester]", "Percent Inhibition at 10 μM": 18.39}
    ]},
    {"test_system": "NF-κB mediated transcription", "assay": "NF-κB driven β-lactamase reporter assay in ECV-304 NF-κB.βlaZ cells (AURORA CCF2 fluorescence)", "assay_type": "cell-based, human", "settings": "Homo sapiens, ECV-304, 6 h, 10 μM compound; ECV-304 NF-κB.βlaZ cells stimulated with 10 ng/mL TNF-α or 100 pg/mL IL-1β, 6 hours at 37° C.; inhibition of maximum blue/green ratio; read-out: Percent Inhibition at 10 μM", "outline": "as §1", "units": {"inhibition at 10 µM": "%"}, "values": [
      {"smiles": "CC(C)c1cc(C(C)C)c(CC(=O)NS(=O)(=O)Oc2c(C(C)C)cc(NC(=O)Nc3ccccc3)cc2C(C)C)c(C(C)C)c1", "note": "[Example 218, [(2,4,6-Triisopropyl-phenyl)-acetyl]-sulfamic acid 2,6-diisopropyl-4-(3-phenyl-ureido)-phenyl ester]", "inhibition at 10 µM": "< 10"},
      {"smiles": "CCCCCCCCCCCCCCCCCCN(C)S(=O)(=O)NC(=O)Nc1c(C(C)C)cccc1C(C)C", "note": "[Example 80, Urea, N-[2,6-bis(1-methylethyl)phenyl]-N′-[(methyloctadecylamino)-sulfonyl]-]", "inhibition at 10 µM": "< 10"},
      {"smiles": "CC(C)c1cc(C(C)C)c(CC(=O)NS(=O)(=O)Oc2c(C(C)C)cc(O)cc2C(C)C)c(C(C)C)c1", "note": "[Example 180, [(2,4,6-Triisopropyl-phenyl)-acetyl]-sulfamic acid 4-hydroxy-2,6-diisopropyl-phenyl ester]", "inhibition at 10 µM": 92},
      {"smiles": "CC(C)c1cc(C(C)C)c(CC(=O)NS(=O)(=O)Oc2c(C(C)C)cc(N)cc2C(C)C)c(C(C)C)c1", "note": "[Example 187, [(2,4,6-Triisopropyl-phenyl)-acetyl]-sulfamic acid 4-amino-2,6-diisopropyl-phenyl ester]", "inhibition at 10 µM": 57.8},
      {"smiles": "CC(C)c1cccc(C(C)C)c1NC(=O)NS(=O)(=O)N1CCCCC1", "note": "[Example 71, Urea, N-[2,6-bis(1-methylethyl)phenyl]-N′-(1-piperidinylsulfonyl)-]", "inhibition at 10 µM": "< 10"},
      {"smiles": "CC(C)c1cc(C(C)C)c(CC(=O)NS(=O)(=O)Oc2c(C(C)C)cc(C=CC#N)cc2C(C)C)c(C(C)C)c1", "note": "[Example 224, [(2,4,6-Triisopropyl-phenyl)-acetyl]-sulfamic acid 4-(2-cyano-vinyl)-2,6-diisopropyl-phenyl ester]", "inhibition at 10 µM": "< 10"},
      {"smiles": "COC(=O)c1cc(C(C)C)c(OS(=O)(=O)NC(=O)Cc2c(C(C)C)cc(C(C)C)cc2C(C)C)c(C(C)C)c1", "note": "[Example 228, 3,5-Diisopropyl-4-{[(2,4,6-triisopropyl-phenyl)-acetyl]sulfamoyloxy}-benzoic acid methyl ester]", "inhibition at 10 µM": 76.1},
      {"smiles": "Cc1cc(C(C)C)c(OS(=O)(=O)NC(=O)Cc2c(C(C)C)cc(C(C)C)cc2C(C)C)c(C(C)C)c1", "note": "[Example 210, [(2,4,6-Triisopropyl-phenyl)-acetyl]-sulfamic acid 2,6-diisopropyl-4-methyl-phenyl ester]", "inhibition at 10 µM": 52.5},
      {"smiles": "CC(C)c1cccc(C(C)C)c1OS(=O)(=O)NC(=O)OC12CC3CC(CC(C3)C1)C2", "note": "[Example 136, Carbamic acid, [[2,6-bis(1-methylethyl)phenoxy]sulfonyl]-, tricyclo[3.3.1.1^3,7]-dec-1-yl ester]", "inhibition at 10 µM": "< 10"},
      {"smiles": "CC(C)c1cccc(C(C)C)c1NC(=O)NS(=O)(=O)N1CCCC1", "note": "[Example 70, Urea, N-[2,6-bis(1-methylethyl)phenyl]-N′-(1-pyrrolidinylsulfonyl)-]", "inhibition at 10 µM": "< 10"},
      {"smiles": "CC(C)c1cc(C(C)C)c(CC(=O)NS(=O)(=O)Oc2c(C(C)C)cc(NC(=O)Nc3c(C(C)C)cccc3C(C)C)cc2C(C)C)c(C(C)C)c1", "note": "[Example 215, [(2,4,6-Triisopropyl-phenyl)-acetyl]-sulfamic acid 4-[3-(2,6-diisopropyl-phenyl)-ureido]-2,6-diisopropyl-phenyl ester]", "inhibition at 10 µM": 74.7},
      {"smiles": "CC(C)c1cccc(C(C)C)c1OS(=O)(=O)NC(=O)OC1[C@@H](C(C)C)CCC[C@H]1C(C)C", "note": "(stereo partly drawn) [Example 164, Carbamic acid, [[2,6-bis(1-methylethyl)phenoxy]sulfonyl]-, (2R,6S)-2,6-bis(1-methylethyl)cyclohexyl ester]", "inhibition at 10 µM": 55.2},
      {"smiles": "CC(C)c1cccc(C(C)C)c1NC(=O)NS(=O)(=O)NC(c1ccccc1)c1ccccc1", "note": "[Example 8, Urea, N-[2,6-bis(1-methylethyl)phenyl]-N′-[[(diphenylmethyl)amino]-sulfonyl]-]", "inhibition at 10 µM": "< 10"},
      {"smiles": "CCCCCCCCCCCCCC(C)(C)S(=O)(=O)NC(=O)Nc1c(C(C)C)cccc1C(C)C", "note": "[Example 248, N-[2,6-bis(1-methylethyl)phenyl]-N′-(2-methyl-2-pentadecylsulfonyl)urea]", "inhibition at 10 µM": 11.4},
      {"smiles": "CC(C)c1cccc(C(C)C)c1NC(=O)NS(=O)(=O)N(Cc1ccccc1)Cc1ccccc1", "note": "[Example 17, N-[2,6-bis(1-methylethyl)phenyl]-N′-[[bis(phenylmethyl)amino]-sulfonyl]-urea]", "inhibition at 10 µM": 43.8},
      {"smiles": "CCCCCCCCCC(=O)NS(=O)(=O)Oc1c(C(C)C)cccc1C(C)C", "note": "[Example 106, Sulfamic acid, (1-oxodecyl)-, 2,6-bis(1-methylethyl)phenyl ester]", "inhibition at 10 µM": 72.3},
      {"smiles": "COc1cc(OC)c(CC(=O)NS(=O)(=O)Oc2c(C(C)C)cccc2C(C)C)c(OC)c1", "note": "[Example 147, [(2,4,6-Trimethoxy-phenyl)-acetyl]-sulfamic acid 2,6-diisopropyl-phenyl ester]", "inhibition at 10 µM": "< 10"},
      {"smiles": "COc1ccccc1CC(=O)NS(=O)(=O)Oc1c(C(C)C)cccc1C(C)C", "note": "[Example 156, [(2-Methoxy-phenyl)-acetyl]-sulfamic acid 2,6-diisopropyl-phenyl ester]", "inhibition at 10 µM": "< 10"},
      {"smiles": "CC(C)c1cccc(C(C)C)c1OS(=O)(=O)NC(=O)C(Br)c1ccccc1", "note": "(stereo not shown) [Example 175, (Bromo-phenyl-acetyl)-sulfamic acid 2,6-diisopropyl-phenyl ester]", "inhibition at 10 µM": "< 10"},
      {"smiles": "CCCCCCNS(=O)(=O)NC(=O)Nc1c(C(C)C)cccc1C(C)C", "note": "[Example 39, N-[2,6-bis(1-methylethyl)phenyl]-N′-[(hexylamino)sulfonyl]-urea]", "inhibition at 10 µM": "< 10"},
      {"smiles": "CC(C)c1cc(C(C)C)c(CC(=O)NS(=O)(=O)Oc2c(C(C)C)cc(OCCCN(C)C)cc2C(C)C)c(C(C)C)c1", "note": "[Example 205, [(2,4,6-Triisopropyl-phenyl)-acetyl]-sulfamic acid 4-(3-dimethylamino-propoxy)-2,6-diisopropyl-phenyl ester]", "inhibition at 10 µM": 11.7},
      {"smiles": "CC(C)c1cc(C(C)C)c(CC(=O)NS(=O)(=O)Oc2c(C(C)C)cc(NS(=O)(=O)c3cccc4c(N(C)C)cccc34)cc2C(C)C)c(C(C)C)c1", "note": "[Example 226, [(2,4,6-Triisopropyl-phenyl)-acetyl]-sulfamic acid 4-(5-dimethylamino-naphthalene-1-sulfonylamino)-2,6-diisopropyl-phenyl ester]", "inhibition at 10 µM": 46.3}
    ]},
    {"test_system": "NF-κB mediated transcription", "assay": "NF-κB driven β-lactamase reporter assay in ECV-304 NF-κB.βlaZ cells (AURORA CCF2 fluorescence)", "assay_type": "cell-based, human", "settings": "Homo sapiens; 10 μM compound; ECV-304 NF-κB.βlaZ cells stimulated with 10 ng/mL TNF-α or 100 pg/mL IL-1β, 6 hours at 37° C.; inhibition of maximum blue/green ratio; read-out: Percent Inhibition at 10 μM", "outline": "as §1", "units": {"inhibition at 10 µM": "%"}, "values": [
      {"smiles": "CC(C)c1cccc(C(C)C)c1OC(=O)NS(=O)(=O)Oc1c(C(C)C)cccc1C(C)C", "note": "[Example 28, Carbamic acid, [[2,6-bis(1-methylethyl)phenoxy]sulfonyl]-, 2,6-bis(1-methylethyl)phenyl ester]", "inhibition at 10 µM": 30.2},
      {"smiles": "CC(C)(C)c1cccc(C(C)(C)C)c1OC(=O)NS(=O)(=O)NC(c1ccccc1)c1ccccc1", "note": "[Example 2, Carbamic acid, [[(diphenylmethyl)amino]sulfonyl]-, 2,6-bis(1,1-dimethylethyl)phenyl ester]", "inhibition at 10 µM": 37.2},
      {"smiles": "CC(C)c1cccc(C(C)C)c1OC(=O)NS(=O)(=O)N(C(C)C)C(C)C", "note": "[Example 62, Carbamic acid, [[bis(1-methylethyl)amino]sulfonyl]-, 2,6-bis(1-methylethyl)-phenyl ester]", "inhibition at 10 µM": "< 10"},
      {"smiles": "Cc1cc(C(C)(C)C)c(OC(=O)NS(=O)(=O)NCC(c2ccccc2)c2ccccc2)c(C(C)(C)C)c1", "note": "[Example 12, Carbamic acid, [[(2,2-diphenylethyl)amino]sulfonyl]-, 2,6-bis(1,1-dimethylethyl)-4-methylphenyl ester]", "inhibition at 10 µM": 57},
      {"smiles": "CC(C)c1cccc(C(C)C)c1OS(=O)(=O)NC(=O)Oc1c(-c2ccccc2)cccc1-c1ccccc1", "note": "[Example 114, Carbamic acid, [[2,6-bis(1-methylethyl)phenoxy]sulfonyl]-, [1,1′:3′,1″-terphenyl]-2′-yl ester]", "inhibition at 10 µM": "< 10"},
      {"smiles": "Cc1cccc(C)c1OS(=O)(=O)NC(=O)Oc1c(C(C)C)cccc1C(C)C", "note": "[Example 98, Carbamic acid, [(2,6-dimethylphenoxy)sulfonyl]-, 2,6-bis(1-methylethyl)-phenyl ester]", "inhibition at 10 µM": "< 10"},
      {"smiles": "CC(C)(C)c1cc(O)cc(C(C)(C)C)c1OC(=O)NS(=O)(=O)Nc1ccccc1", "note": "[Example 14, Carbamic acid, [(phenylamino)sulfonyl]-, 2,6-bis(1,1-dimethylethyl)-4-hydroxyphenyl ester]", "inhibition at 10 µM": 13.8},
      {"smiles": "CCCCCCN(CCCCCC)S(=O)(=O)NC(=O)Oc1c(C(C)C)cccc1C(C)C", "note": "[Example 88, Carbamic acid, [(dihexylamino)sulfonyl]-, 2,6-bis(1-methylethyl)phenyl ester]", "inhibition at 10 µM": "< 10"},
      {"smiles": "CC(C)c1cccc(C(C)C)c1NS(=O)(=O)NC(=O)Oc1c(C(C)(C)C)cccc1C(C)(C)C", "note": "[Example 5, Carbamic acid, [[[2,6-bis(1-methylethyl)phenyl]amino]sulfonyl]-, 2,6-bis(1,1-dimethylethyl)phenyl ester]", "inhibition at 10 µM": 56.4}
    ]}
  ]
}
